# Entries after “also recorded” stand apart in the source; their conditions may differ.
# Tests used:
# [1] = glucose metabolism and body weight in mice after oral treatment; format: in vivo
# [2] = molecular target: kinase targets, including Akt(1,2,3), PI3K, and PDK1; test: kinase panel screening; format: biochemical; settings: broad selection of kinase targets incl. Akt(1,2,3)
# COX-1 = COX-1 (Homo sapiens, UniProt P23219); test: effect on cyclooxygenase COX-1 activity; format: biochemical
# human 12-LOX = molecular target: T1, human 12-LOX (Homo sapiens, UniProt P18054); test: colorimetric platelet 12-LOX activity assay (ferric oxidation of xylenol orange, human blood platelets); format: cell-based
# T1 construct: ferric oxidation of xylenol orange from arachidonic acid in human blood platelets; endogenous in cells; host or cells: human blood platelets
# T1 sequence (P18054 1-663): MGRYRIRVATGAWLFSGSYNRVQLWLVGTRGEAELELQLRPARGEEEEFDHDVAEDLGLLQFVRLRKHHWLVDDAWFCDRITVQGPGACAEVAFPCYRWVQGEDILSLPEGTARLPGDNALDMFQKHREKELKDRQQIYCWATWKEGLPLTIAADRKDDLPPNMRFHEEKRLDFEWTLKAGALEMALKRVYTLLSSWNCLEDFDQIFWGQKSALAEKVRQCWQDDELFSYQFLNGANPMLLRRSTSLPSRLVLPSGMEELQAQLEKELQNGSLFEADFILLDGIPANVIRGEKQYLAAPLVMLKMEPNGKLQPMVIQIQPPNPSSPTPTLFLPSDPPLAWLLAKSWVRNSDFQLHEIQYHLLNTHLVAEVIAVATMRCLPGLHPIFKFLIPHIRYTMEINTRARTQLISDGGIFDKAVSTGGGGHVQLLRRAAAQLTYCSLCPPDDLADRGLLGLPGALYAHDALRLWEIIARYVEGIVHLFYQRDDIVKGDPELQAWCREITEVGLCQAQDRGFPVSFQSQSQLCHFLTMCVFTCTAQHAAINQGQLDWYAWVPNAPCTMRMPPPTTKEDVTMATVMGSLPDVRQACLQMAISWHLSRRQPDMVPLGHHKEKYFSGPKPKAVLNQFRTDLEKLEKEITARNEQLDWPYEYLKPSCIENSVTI
# Description: (§1) Table 3 provides results for exemplary subject bisindole compounds on 5-LOX, 12-LOX and 15-LOX.
# COX-2 = molecular target: T2, COX-2 (Homo sapiens, UniProt P35354); test: effect on cyclooxygenase COX-2 activity; format: biochemical
# T2 sequence (P35354 18-604): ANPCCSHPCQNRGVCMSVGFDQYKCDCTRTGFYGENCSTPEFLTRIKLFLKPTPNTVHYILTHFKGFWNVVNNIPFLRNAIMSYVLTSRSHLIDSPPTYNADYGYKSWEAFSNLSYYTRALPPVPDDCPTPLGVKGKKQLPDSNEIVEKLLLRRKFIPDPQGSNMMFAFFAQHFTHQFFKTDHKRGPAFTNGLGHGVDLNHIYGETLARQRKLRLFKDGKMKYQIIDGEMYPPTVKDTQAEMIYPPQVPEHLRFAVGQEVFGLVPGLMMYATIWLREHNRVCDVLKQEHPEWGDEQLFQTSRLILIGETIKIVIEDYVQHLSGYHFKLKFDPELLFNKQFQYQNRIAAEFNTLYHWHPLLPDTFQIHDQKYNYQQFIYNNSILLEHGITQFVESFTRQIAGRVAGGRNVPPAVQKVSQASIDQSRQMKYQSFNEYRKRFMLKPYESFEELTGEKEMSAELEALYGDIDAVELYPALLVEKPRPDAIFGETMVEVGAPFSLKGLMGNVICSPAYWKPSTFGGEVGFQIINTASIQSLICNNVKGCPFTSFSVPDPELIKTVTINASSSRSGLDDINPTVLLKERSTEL
# 15-LOX = test: enzyme panel screening, 15-LOX; format: biochemical
# Akt and ERK activation = test: Akt and ERK activation; format: cell-based; settings: by inhibiting 12-LOX mediated metabolism of arachidonic acid
# 5-LOX [3] = molecular target: T3, 5-LOX (Homo sapiens, UniProt P09917); test: enzyme panel screening, 5-LOX; format: biochemical
# T3 sequence (P09917 1-674): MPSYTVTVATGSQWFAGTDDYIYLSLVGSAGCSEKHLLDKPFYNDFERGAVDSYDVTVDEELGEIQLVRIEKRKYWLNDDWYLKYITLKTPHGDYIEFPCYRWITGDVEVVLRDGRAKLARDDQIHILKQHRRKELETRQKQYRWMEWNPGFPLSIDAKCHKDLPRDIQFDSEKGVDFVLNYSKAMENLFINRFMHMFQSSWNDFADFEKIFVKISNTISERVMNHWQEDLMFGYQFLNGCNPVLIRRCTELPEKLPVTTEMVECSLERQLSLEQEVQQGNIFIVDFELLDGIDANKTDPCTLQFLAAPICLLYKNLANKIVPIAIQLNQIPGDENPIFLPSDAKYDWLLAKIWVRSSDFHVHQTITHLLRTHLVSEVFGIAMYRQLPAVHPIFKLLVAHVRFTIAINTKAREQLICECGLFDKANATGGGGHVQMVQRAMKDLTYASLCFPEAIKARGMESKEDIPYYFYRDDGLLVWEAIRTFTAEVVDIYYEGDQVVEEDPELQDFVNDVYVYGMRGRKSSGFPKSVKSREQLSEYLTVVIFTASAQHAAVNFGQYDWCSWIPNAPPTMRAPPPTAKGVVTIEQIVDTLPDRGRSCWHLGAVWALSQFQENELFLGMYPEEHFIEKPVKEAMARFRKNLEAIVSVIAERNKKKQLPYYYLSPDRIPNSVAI
# 5-LOX [4] = molecular target: T3, 5-LOX; test: fluorescence-based enzyme assay of human 5-LOX (Table 3); format: biochemical; settings: 3 μM
# Description: as §1
# 15-LOX-2 = molecular target: T4, 15-LOX-2 (Homo sapiens, UniProt O15296); test: in vitro 15-LOX-2 inhibition (Table 3); format: biochemical
# T4 sequence (O15296 1-676): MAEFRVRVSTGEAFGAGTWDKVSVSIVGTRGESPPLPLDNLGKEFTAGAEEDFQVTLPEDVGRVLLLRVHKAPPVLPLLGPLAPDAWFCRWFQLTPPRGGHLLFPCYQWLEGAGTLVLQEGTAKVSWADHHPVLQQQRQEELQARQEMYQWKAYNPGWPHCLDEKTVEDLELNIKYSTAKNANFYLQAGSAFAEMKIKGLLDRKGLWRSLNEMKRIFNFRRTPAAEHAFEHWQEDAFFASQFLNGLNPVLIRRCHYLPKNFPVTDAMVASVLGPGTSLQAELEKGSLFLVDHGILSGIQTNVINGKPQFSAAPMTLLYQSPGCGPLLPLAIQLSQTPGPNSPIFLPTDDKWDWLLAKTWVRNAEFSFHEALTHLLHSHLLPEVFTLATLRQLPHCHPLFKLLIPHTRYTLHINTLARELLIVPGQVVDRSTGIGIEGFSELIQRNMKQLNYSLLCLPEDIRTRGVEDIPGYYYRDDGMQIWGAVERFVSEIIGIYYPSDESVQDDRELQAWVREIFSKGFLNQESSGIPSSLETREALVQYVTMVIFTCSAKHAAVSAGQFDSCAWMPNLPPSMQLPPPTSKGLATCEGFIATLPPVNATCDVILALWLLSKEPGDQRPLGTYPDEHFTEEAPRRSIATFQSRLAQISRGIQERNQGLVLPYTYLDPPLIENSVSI
# Description: as §1
# COX-1, sequence (P23219 24-599): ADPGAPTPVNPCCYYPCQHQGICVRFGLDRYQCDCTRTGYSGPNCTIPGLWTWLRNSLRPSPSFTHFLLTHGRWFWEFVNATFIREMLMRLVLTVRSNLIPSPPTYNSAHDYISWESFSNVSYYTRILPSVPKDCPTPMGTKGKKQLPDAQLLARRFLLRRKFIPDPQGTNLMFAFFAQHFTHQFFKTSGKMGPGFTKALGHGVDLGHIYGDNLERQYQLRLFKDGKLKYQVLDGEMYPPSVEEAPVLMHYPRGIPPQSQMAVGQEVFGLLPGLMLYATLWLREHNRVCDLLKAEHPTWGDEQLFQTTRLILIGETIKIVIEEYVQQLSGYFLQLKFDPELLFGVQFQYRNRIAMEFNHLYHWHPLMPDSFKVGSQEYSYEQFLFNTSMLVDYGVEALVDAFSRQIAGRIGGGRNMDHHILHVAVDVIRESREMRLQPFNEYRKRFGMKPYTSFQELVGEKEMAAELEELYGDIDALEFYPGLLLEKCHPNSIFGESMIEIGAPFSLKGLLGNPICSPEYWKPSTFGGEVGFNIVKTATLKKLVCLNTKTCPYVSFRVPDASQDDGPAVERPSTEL
kinase inhibition [2],"12-LOX enzyme activity inhibition (human 12-LOX; 10 uM, human blood platelets, cell-based assay)",IC50 (human 12-LOX; cell-based enzyme assay),inhibition at 3 µM (human 12-LOX),inhibition at 3 µM (5-LOX [4]),inhibition at 3 µM (15-LOX-2),SMILES,effects on glucose metabolism [1],"effects on body weights ([1]; oral, 500 mg/kg/day, 14 days)","effects on fasting glucose levels ([1]; oral, 500 mg/kg/day, 14 days)",effect on COX-1 activity (COX-1),selectivity for 12-LOX (human 12-LOX; versus panels of kinases and enzymes incl. 5-LOX and 15-LOX),effect on COX-2 activity (COX-2),effect on 15-LOX activity (15-LOX),Akt and ERK activation (Akt and ERK activation),effect on 5-LOX activity (5-LOX [3])
not a kinase inhibitor,inhibit 12-LOX enzyme activity,0.01 µM,–,–,–,CCOC(=O)c1ccc2[nH]c3c(OC)c4[nH]c5ccc(C(=O)OCC)cc5c4cc3c2c1 [Compound (1)],no adverse effects on glucose metabolism,no adverse effects,no adverse effects,does not significantly affect the activity,selective for 12-LOX; also recorded: selectively inhibits 12-lipoxygenase enzyme activity; also recorded: selectively inhibits human 12-LOX,does not significantly affect the activity,does not significantly affect the activity,inhibit Akt and ERK activation,does not significantly affect the activity
–,–,–,85%,75%,17%,CN(C)CCOc1c2[nH]c3ccc(F)cc3c2c(Cl)c2c1[nH]c1ccc(F)cc12 [drawing 18],–,–,–,–,–,–,–,–,–
–,–,–,87%,87%,41%,Fc1ccc2[nH]c3c(OC[C@@H]4C[C@H](F)CN4)c4[nH]c5ccc(F)cc5c4cc3c2c1 [drawing 19],–,–,–,–,–,–,–,–,–
–,–,–,75%,37%,10%,CCOC(=O)c1ccc2[nH]c3c(O[C@H]4CCNC4)c4[nH]c5ccc(C(=O)OCC)cc5c4cc3c2c1 [drawing 20],–,–,–,–,–,–,–,–,–
